Calls of active or inactive are those of the source. The calls are words filed in the database; no cut-off is given here.
Assays:
[1] = system: Mus musculus; assay: Induction of hypothermia in Albino Swiss mouse assessed as change in body temperature pretreated for 30 mins at 5 mg/kg, ip measured 30 mins after drug dose; assay type: functional, organism-based; set-up: dose 5 mg/kg
[2] = system: Mus musculus; assay: Induction of hypothermia in Albino Swiss mouse assessed as change in body temperature pretreated for 30 mins at 10 mg/kg, ip measured 90 mins after drug dose; assay type: functional, organism-based; set-up: dose 10 mg/kg
[3] = system: Mus musculus; assay: Induction of hypothermia in Albino Swiss mouse assessed as change in body temperature pretreated for 30 mins at 20 mg/kg, ip measured 120 mins after drug dose; assay type: functional, organism-based; set-up: dose 20 mg/kg
[4] = target: Sodium-dependent serotonin transporter (Rattus norvegicus, UniProt P31652); assay: Displacement of [3H]citalopram from 5HTT in rat brain membranes; assay type: cell membranes
[5] = system: Mus musculus; assay: Reduction of immobility time in Albino Swiss mouse at 10 mg/kg, ip pretreated for 30 mins by forced swimming test; assay type: functional; set-up: scale not given: the % may be the effect or the level left
[6] = system: Mus musculus; assay: Induction of hypothermia in Albino Swiss mouse assessed as change in body temperature pretreated for 30 mins at 20 mg/kg, ip measured 30 mins after drug dose; assay type: functional, organism-based; set-up: dose 20 mg/kg
[7] = system: Mus musculus; assay: Induction of hypothermia in 0.1 mg/kg WAY 100635 pretreated Albino Swiss mouse assessed as change in body temperature at 20 mg/kg, ip measured 60 mins after drug dose; assay type: functional, organism-based
[8] = system: Mus musculus; assay: Reduction of spontaneous locomotor activity in Albino Swiss mouse at 20 mg/kg, ip during 6 mins; assay type: functional, organism-based; set-up: dose 20 mg/kg
[9] = system: Mus musculus; assay: Induction of hypothermia in Albino Swiss mouse assessed as change in body temperature pretreated for 30 mins at 5 mg/kg, ip measured 60 mins after drug dose; assay type: functional, organism-based; set-up: dose 5 mg/kg
[10] = system: Mus musculus; assay: Induction of hypothermia in Albino Swiss mouse assessed as change in body temperature pretreated for 30 mins at 20 mg/kg, ip measured 90 mins after drug dose; assay type: functional, organism-based; set-up: dose 20 mg/kg
[11] = system: Mus musculus; assay: Effect on spontaneous locomotor activity in Albino Swiss mouse assessed as number of light-beam crossings in actiometers pretreated for 30 mins at 10 mg/kg, ip measured during 6 mins post drug dose; assay type: functional; conditions: route intraperitoneal
[12] = system: Mus musculus; assay: Reduction of spontaneous locomotor activity in Albino Swiss mouse at 20 mg/kg, ip during 30 mins; assay type: functional, organism-based; set-up: dose 20 mg/kg
[13] = system: Mus musculus; assay: Effect on spontaneous locomotor activity in Albino Swiss mouse assessed as number of light-beam crossings in actiometers pretreated for 30 mins at 10 mg/kg, ip measured during 30 mins post drug dose; assay type: functional; conditions: route intraperitoneal
[14] = system: Mus musculus; assay: Induction of hypothermia in Albino Swiss mouse assessed as change in body temperature pretreated for 30 mins at 5 mg/kg, ip measured 90 mins after drug dose; assay type: functional, organism-based; set-up: dose 5 mg/kg
[15] = system: Mus musculus; assay: Induction of hypothermia in Albino Swiss mouse assessed as change in body temperature pretreated for 30 mins at 10 mg/kg, ip measured 60 mins after drug dose; assay type: functional, organism-based; set-up: dose 10 mg/kg
[16] = system: Mus musculus; assay: Induction of hypothermia in Albino Swiss mouse assessed as change in body temperature pretreated for 30 mins at 10 mg/kg, ip measured 120 mins after drug dose; assay type: functional, organism-based; set-up: dose 10 mg/kg
[17] = system: Mus musculus; assay: Induction of hypothermia in Albino Swiss mouse assessed as change in body temperature pretreated for 30 mins at 10 mg/kg, ip measured 30 mins after drug dose; assay type: functional, organism-based; set-up: dose 10 mg/kg
[18] = system: Mus musculus; assay: Induction of hypothermia in Albino Swiss mouse assessed as change in body temperature pretreated for 30 mins at 5 mg/kg, ip measured 120 mins after drug dose; assay type: functional, organism-based; set-up: dose 5 mg/kg
[19] = system: Mus musculus; assay: Induction of hypothermia in 0.1 mg/kg WAY 100635 pretreated Albino Swiss mouse assessed as change in body temperature at 20 mg/kg, ip measured 30 mins after drug dose; assay type: functional, organism-based
[20] = system: Mus musculus; assay: Induction of hypothermia in Albino Swiss mouse assessed as change in body temperature pretreated for 30 mins at 20 mg/kg, ip measured 60 mins after drug dose; assay type: functional, organism-based; set-up: dose 20 mg/kg
[21] = target: T1, 5-hydroxytryptamine receptor 1A (Rattus norvegicus, UniProt P19327); assay: Displacement of [3H]8-OH-DPAT from 5HT1A receptor in rat brain membranes; assay type: cell membranes
T1 sequence (P19327 whole entry): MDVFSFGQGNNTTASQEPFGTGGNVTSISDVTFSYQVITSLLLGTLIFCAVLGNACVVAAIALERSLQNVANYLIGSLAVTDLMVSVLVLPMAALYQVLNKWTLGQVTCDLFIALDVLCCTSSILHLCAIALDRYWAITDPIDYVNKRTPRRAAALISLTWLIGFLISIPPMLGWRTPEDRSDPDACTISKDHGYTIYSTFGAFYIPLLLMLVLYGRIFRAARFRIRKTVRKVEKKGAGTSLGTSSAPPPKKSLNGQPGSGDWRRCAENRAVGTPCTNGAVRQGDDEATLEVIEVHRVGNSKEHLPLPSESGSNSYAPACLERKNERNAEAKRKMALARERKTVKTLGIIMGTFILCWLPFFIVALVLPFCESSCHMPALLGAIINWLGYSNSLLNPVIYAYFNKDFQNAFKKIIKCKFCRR

[22] = system: Mus musculus; assay: Inhibition of 8-OH-DPAT-induced hypothermia in Albino Swiss mouse assessed as change in body temperature at 20 mg/kg, ip; assay type: functional, organism-based; set-up: dose 20 mg/kg
[23] = system: Mus musculus; assay: Effect on spontaneous locomotor activity in Albino Swiss mouse assessed as number of light-beam crossings in actiometers pretreated for 30 mins at 20 mg/kg, ip measured during 6 mins post drug dose; assay type: functional; conditions: route intraperitoneal
[24] = system: Mus musculus; assay: Effect on spontaneous locomotor activity in Albino Swiss mouse assessed as number of light-beam crossings in actiometers pretreated for 30 mins at 20 mg/kg, ip measured during 30 mins post drug dose; assay type: functional; conditions: route intraperitoneal
[25] = system: Mus musculus; assay: Reduction of immobility time in Albino Swiss mouse at 1 mg/kg, ip pretreated for 30 mins by forced swimming test; assay type: functional; set-up: scale not given: the % may be the effect or the level left; conditions: route intraperitoneal
[26] = system: Mus musculus; assay: Reduction of immobility time in Albino Swiss mouse at 2 mg/kg, ip pretreated for 30 mins by forced swimming test; assay type: functional; set-up: scale not given: the % may be the effect or the level left; conditions: route intraperitoneal
[27] = organism: Mus musculus; conditions: Albino Swiss, 10 mg/kg
Description: Induction of hypothermia in 0.1 mg/kg WAY 100635 pretreated Albino Swiss mouse assessed as change in body temperature at 10 mg/kg, ip measured 60 mins after drug dose

[28] = organism: Mus musculus; conditions: Albino Swiss, 10 mg/kg; remark: listed apart in the source
Description: Induction of hypothermia in 0.1 mg/kg WAY 100635 pretreated Albino Swiss mouse assessed as change in body temperature at 10 mg/kg, ip measured 30 mins after drug dose

[29] = system: Mus musculus; assay: Reduction of immobility time in Albino Swiss mouse at 20 mg/kg, ip pretreated for 30 mins by forced swimming test; assay type: functional; set-up: scale not given: the % may be the effect or the level left

Chain of Sodium-dependent serotonin transporter (P31652 whole entry): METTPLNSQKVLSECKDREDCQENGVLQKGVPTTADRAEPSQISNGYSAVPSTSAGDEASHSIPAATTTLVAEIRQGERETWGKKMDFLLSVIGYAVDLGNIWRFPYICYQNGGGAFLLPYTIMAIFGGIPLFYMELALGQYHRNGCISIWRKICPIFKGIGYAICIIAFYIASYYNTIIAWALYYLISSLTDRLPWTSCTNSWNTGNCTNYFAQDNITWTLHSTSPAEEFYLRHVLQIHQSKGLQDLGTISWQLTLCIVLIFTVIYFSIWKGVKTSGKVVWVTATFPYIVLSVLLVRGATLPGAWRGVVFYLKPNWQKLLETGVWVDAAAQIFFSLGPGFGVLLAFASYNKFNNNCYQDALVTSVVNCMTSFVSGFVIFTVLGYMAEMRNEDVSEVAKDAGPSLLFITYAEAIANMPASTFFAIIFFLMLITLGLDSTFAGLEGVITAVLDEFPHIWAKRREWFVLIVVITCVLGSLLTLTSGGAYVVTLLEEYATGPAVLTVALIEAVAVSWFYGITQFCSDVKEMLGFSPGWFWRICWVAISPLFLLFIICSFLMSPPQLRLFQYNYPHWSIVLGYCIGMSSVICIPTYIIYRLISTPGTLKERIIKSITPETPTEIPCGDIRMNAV

| Structure (SMILES) | deltaT [1] [°C] | deltaT [2] [°C] | deltaT [3] [°C] | Ki [4] [nM] | deltaT [6] [°C] | deltaT [7] [°C] | deltaT [9] [°C] | deltaT [10] [°C] | deltaT [14] [°C] | deltaT [15] [°C] | deltaT [16] [°C] | deltaT [17] [°C] | deltaT [18] [°C] | deltaT [19] [°C] | deltaT [20] [°C] | Ki [21] [nM] | also measured |
| --- | --- | --- | --- | --- | --- | --- | --- | --- | --- | --- | --- | --- | --- | --- | --- | --- | --- |
| O=c1c(-c2ccccc2F)c2ccccn2c(=O)n1CCCCN1CCC(c2c[nH]c3ccccc23)CC1 | -0.5 | -0.3 | -0.7 | 0.7 | -1.1 | -0.1 | -0.3 | -0.7 | -0.1 | -0.2 | -0.1 | -0.8 | -0.1 | -0.3 | -0.8 | 4.8 | Activity ([5]; route intraperitoneal): 40%; Activity [8]: Active; Activity [11]: 179; Activity [12]: Active; Activity [13]: 399 |
| COc1ccc2[nH]cc(C3CCN(CCCCn4c(=O)c(-c5ccc(Cl)cc5)c5ccccn5c4=O)CC3)c2c1 |  |  |  | 251 |  |  |  |  |  |  |  |  |  |  |  | 41.1 |  |
| COc1ccc(-c2c(=O)n(CCCCN3CCC(c4c[nH]c5ccc(OC)cc45)CC3)c(=O)n3ccccc23)cc1 |  |  |  | 129 |  |  |  |  |  |  |  |  |  |  |  | 78 |  |
| O=c1c(-c2ccc(Cl)cc2)c2ccccn2c(=O)n1CCCCN1CCC(c2c[nH]c3ccccc23)CC1 | -0.5 | -0.1 | -0.7 | 280 | -1.2 | -0.2 | -0.4 | -1.1 | -0.4 | -0.1 | -0.1 | -0.4 | -0.2 | -0.4 | -1 | 37.1 |  |
| COc1ccc(-c2c(=O)n(CCCCN3CCC(c4c[nH]c5ccccc45)CC3)c(=O)n3ccccc23)cc1 | -0.3 | -0.1 | -0.1 | 145 | -0.3 |  | -0.6 | -0.2 | -0.6 | -0.3 | -0.2 | -0.3 | -0.4 |  | -0.2 | 42.1 | Activity [22]: inactive |
| O=c1c(-c2ccccc2)c2ccccn2c(=O)n1CCCCN1CCC(c2c[nH]c3ccccc23)CC1 | -0.4 | -0.3 | -1.9 | 58.1 | -1.2 | -0.3 | -0.5 | -1.1 | -0.4 | -0.4 | -0.1 | -0.8 | -0.1 | -0.5 | -1.3 | 10.9 | Activity ([5]; route intraperitoneal): 29%; Activity [23]: 409; Activity [24]: 926 |
| COc1ccc2[nH]cc(C3CCN(CCCCn4c(=O)c(-c5ccccc5)c5ccccn5c4=O)CC3)c2c1 |  |  |  | 129 |  |  |  |  |  |  |  |  |  |  |  | 52.3 |  |
| COc1ccc2[nH]cc(C3CCN(CCCCn4c(=O)c(-c5ccc(C)cc5)c5ccccn5c4=O)CC3)c2c1 |  |  |  | 223 |  |  |  |  |  |  |  |  |  |  |  | 59 |  |
| COc1ccc2[nH]cc(C3CCN(CCCCn4c(=O)c(-c5ccc(F)cc5)c5ccccn5c4=O)CC3)c2c1 |  |  |  | 54.6 |  |  |  |  |  |  |  |  |  |  |  | 34.6 |  |
| Br.CCCN(CCC)C1CCc2cccc(O)c2C1 (configuration not stated) |  |  |  |  |  |  |  |  |  |  |  |  |  |  |  |  | Activity [25]: 45%; Activity [26]: 57% |
| O=c1c(-c2ccc(F)cc2)c2ccccn2c(=O)n1CCCCN1CCC(c2c[nH]c3ccccc23)CC1 | -0.4 | -1 | -0.6 | 37.6 | -1.2 |  | -0.3 | -0.8 | -0.4 | -1.2 | -0.8 | -1.2 | -0.3 |  | -1 | 9.2 | deltaT [27]: -0.8 °C; deltaT [28]: -0.8 °C; Activity [11]: 376; Activity [13]: 965; Activity ([29]; route intraperitoneal): 34% |
| Cc1ccc(-c2c(=O)n(CCCCN3CCC(c4c[nH]c5ccccc45)CC3)c(=O)n3ccccc23)cc1 | -0.4 | -0.1 | -0.8 | 0.3 | -1 | -0.2 | 0.2 | -0.7 | -0.1 | -0.3 | -0.1 | -0.5 | -0.1 | -0.3 | -0.8 | 5.8 | Activity [5]: inactive; Activity [29]: inactive |
| COc1ccc2[nH]cc(C3CCN(CCCCn4c(=O)c(-c5ccccc5F)c5ccccn5c4=O)CC3)c2c1 |  |  |  | 59.3 |  |  |  |  |  |  |  |  |  |  |  | 16.7 |  |

— ChEMBL document CHEMBL1137726, “Novel 4-aryl-pyrido[1,2-c]pyrimidines with dual SSRI and 5-HT1A activity, part 1” (Eur J Med Chem, 2009)
